Source: US11185531B2, “Arginine methyltransferase inhibitors and uses thereof” (Epizyme, Inc., priority 2013, dated 2021)

What was measured:
human PRMT8 = biological target: T1, human PRMT8 (Homo sapiens, UniProt Q9NR22); assay: PRMT8 Biochemical Assay (3H-SAM Flashplate, peptide substrate); conditions: 30 min preincubation
T1 construct: Full-length human PRMT8 (NM_019854.4) isoform 1 transcript clone; GST (N, cleaved yes); made in house; host or cells: E. coli BL21(DE3) Gold
Excerpt: Peptide representative of human histone H4 residues 31-45 was synthesized with an N-terminal linker-affinity tag motif and a C-terminal amide cap by 21st Century Biochemicals. The peptide was purified by high-performance liquid chromatography (HPLC) to greater than 95% purity and confirmed by liquid chromatography mass spectrometry (LC-MS). The sequence was Biot-Ahx-[…]-amide (SEQ ID NO:8).
The resulting construct encodes an N-terminal GST tag and a thrombin cleavage sequence
GST-tagged PRMT8 was eluted with 50 mM Tris, 2 mM glutathione, pH 7.8. Pooled fractions were cleaved by thrombin (10 U) and dialysed in buffer A. GST was removed by reloading the cleaved protein sample onto glutathione sepharose column and PRMT8 was collected in the flow-through fractions. PRMT8 was purified further by ceramic hydroxyapatite chromatography. The column was washed with 50 mM phosphate buffer, 100 mM NaCl, 5% glycerol, 5 mM 3-mercaptoethanol, pH 7.8 and PRMT8 was eluted by 100 mM phosphate in the same buffer. Protein was concentrated and buffer was exchanged to 50 mM Tris, 300 mM NaCl, 10% glycerol, 5 mM β-mercaptoethanol, pH 7.8 by ultrafiltration. The purity of recovered protein was 89%.
General Procedure for PRMT8 Enzyme Assays on Peptide Substrates.
The assays were all performed in a buffer consisting of 20 mM Bicine (pH=7.6), 1 mM TCEP, 0.005% BSG, and 0.002% Tween 20, prepared on the day of use. Compounds in 100% DMSO (1 ul) were spotted into a polypropylene 384-well V-bottom plates (Greiner) using a Platemate Plus outfitted with a 384-channel head (Thermo Scientific). DMSO (1 ul) was added to Columns 11, 12, 23, 24, rows A-H for the maximum signal control and 1 ul of SAH, a known product and inhibitor of PRMT8, was added to columns 11, 12, 23, 24, rows I-P for the minimum signal control. A cocktail (40 ul) containing the PRMT8 enzyme was added by Multidrop Combi (Thermo-Fisher). The compounds were allowed to incubate with PRMT8 for 30 min at room temperature, then a cocktail (10 ul) containing ^3H-SAM and peptide was added to initiate the reaction (final volume=51 ul). The final concentrations of the components were as follows: PRMT8 was 1.5 nM, ^3H-SAM was 50 nM, non-radiolabeled SAM was 550 nM, peptide was 150 nM, SAH in the minimum signal control wells was 1 mM, and the DMSO concentration was 2%. The assays were stopped by the addition of non-radiolabeled SAM (10 ul) to a final concentration of 400 uM, which dilutes the ^3H-SAM to a level where its incorporation into the peptide substrate is no longer detectable. 50 ul of the reaction in the 384-well polypropylene plate was then transferred to a 384-well Flashplate and the biotinylated peptides were allowed to bind to the streptavidin surface for at least 1 hour before being washed once with 0.1% Tween20 in a Biotek ELx405 plate washer. The plates were then read in a PerkinElmer TopCount plate reader to measure the quantity of ^3H-labeled peptide bound to the Flashplate surface, measured as disintegrations per minute (dpm) or alternatively, referred to as counts per minute (cpm).
(§1) Where dpm=disintegrations per minute, cmpd=signal in assay well, and min and max are the respective minimum and maximum signal controls.
(§2) Where top and bottom are the normally allowed to float, but may be fixed at 100 or 0 respectively in a 3-parameter fit. The Hill Coefficient normally allowed to float but may also be fixed at 1 in a 3-parameter fit. Y is the % inhibition and X is the compound concentration.

human PRMT6 = biological target: T2, human PRMT6 (Homo sapiens, UniProt Q96LA8); assay: PRMT6 Biochemical Assay (3H-SAM Flashplate, peptide substrate); conditions: 30 min preincubation
T2 construct: Flag-PRMT6-His was eluted with 200 ug/ml FLAG peptide in the same buffer; made in house; host or cells: HEK 293F cells (BacMam baculovirus, pFastBacMam)
T2 sequence (Q96LA8 with tags, fused parts or gaps): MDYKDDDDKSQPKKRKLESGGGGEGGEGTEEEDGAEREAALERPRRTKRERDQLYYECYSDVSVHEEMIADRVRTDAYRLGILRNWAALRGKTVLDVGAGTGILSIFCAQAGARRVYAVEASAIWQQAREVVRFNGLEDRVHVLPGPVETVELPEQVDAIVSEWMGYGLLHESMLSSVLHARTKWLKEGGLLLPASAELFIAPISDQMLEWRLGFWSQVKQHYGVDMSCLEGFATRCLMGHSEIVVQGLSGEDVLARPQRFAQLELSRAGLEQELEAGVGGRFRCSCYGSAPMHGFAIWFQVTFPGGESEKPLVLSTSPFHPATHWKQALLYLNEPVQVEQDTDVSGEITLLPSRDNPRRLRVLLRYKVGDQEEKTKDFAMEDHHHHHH
Excerpt: Peptide representative of human histone H4 residues 36-50 was synthesized with an N-terminal linker-affinity tag motif and a C-terminal amide cap by 21st Century Biochemicals. The peptide was purified by high-performance liquid chromatography (HPLC) to greater than 95% purity and confirmed by liquid chromatography mass spectrometry (LC-MS). The sequence was Biot-Ahx-[…]-amide and contained a monomethylated lysine at position 44 (SEQ ID NO:5).
Full-length human PRMT6 (NM_018137.2) transcript clone was amplified from an HEK 293 cDNA library, incorporating a flanking 5′ sequence encoding a FLAG tag ([…]) (SEQ ID NO:6) fused directly to Ser 2 of PRMT6 and a 3′ sequence encoding a hexa His sequence (HHHHHH) fused directly to Asp 375. The amplified gene was subcloned into pFastBacMam (Viva Biotech).
Column was washed with 20 mM imidazole in the same buffer and Flag-PRMT6-His was eluted with 150 mM imidazole. Pooled fractions were dialysed against buffer Ni-A and further purified by anti-flag M2 affinity chromatography. Flag-PRMT6-His was eluted with 200 ug/ml FLAG peptide in the same buffer. Pooled fractions were dialysed in 20 mM Tris, 150 mM NaCl, 10% glycerol and 5 mM 3-mercaptoethanol, pH 7.8. The purity of recovered protein was 95%.
General Procedure for PRMT6 Enzyme Assays on Peptide Substrates.
The assays were all performed in a buffer consisting of 20 mM Bicine (pH=7.6), 1 mM TCEP, 0.005% BSG, and 0.002% Tween 20, prepared on the day of use. Compounds in 100% DMSO (1 ul) were spotted into a polypropylene 384-well V-bottom plates (Greiner) using a Platemate Plus outfitted with a 384-channel head (Thermo Scientific). DMSO (1 ul) was added to Columns 11, 12, 23, 24, rows A-H for the maximum signal control and 1 ul of SAH, a known product and inhibitor of PRMT6, was added to columns 11, 12, 23, 24, rows I-P for the minimum signal control. A cocktail (40 ul) containing the PRMT6 enzyme was added by Multidrop Combi (Thermo-Fisher). The compounds were allowed to incubate with PRMT6 for 30 min at room temperature, then a cocktail (10 ul) containing SAM and peptide was added to initiate the reaction (final volume=51 ul). The final concentrations of the components were as follows: PRMT6 was 1 nM, ^3H-SAM was 200 nM, non-radiolabeled SAM was 250 nM, peptide was 75 nM, SAH in the minimum signal control wells was 1 mM, and the DMSO concentration was 2%. The assays were stopped by the addition of non-radiolabeled SAM (10 ul) to a final concentration of 400 uM, which dilutes the ^3H-SAM to a level where its incorporation into the peptide substrate is no longer detectable. 50 ul of the reaction in the 384-well polypropylene plate was then transferred to a 384-well Flashplate and the biotinylated peptides were allowed to bind to the streptavidin surface for at least 1 hour before being washed once with 0.1% Tween20 in a Biotek ELx405 plate washer. The plates were then read in a PerkinElmer TopCount plate reader to measure the quantity of ^3H-labeled peptide bound to the Flashplate surface, measured as disintegrations per minute (dpm) or alternatively, referred to as counts per minute (cpm).
as §1, §2

T1 sequence (Q9NR22 whole entry, canonical isoform): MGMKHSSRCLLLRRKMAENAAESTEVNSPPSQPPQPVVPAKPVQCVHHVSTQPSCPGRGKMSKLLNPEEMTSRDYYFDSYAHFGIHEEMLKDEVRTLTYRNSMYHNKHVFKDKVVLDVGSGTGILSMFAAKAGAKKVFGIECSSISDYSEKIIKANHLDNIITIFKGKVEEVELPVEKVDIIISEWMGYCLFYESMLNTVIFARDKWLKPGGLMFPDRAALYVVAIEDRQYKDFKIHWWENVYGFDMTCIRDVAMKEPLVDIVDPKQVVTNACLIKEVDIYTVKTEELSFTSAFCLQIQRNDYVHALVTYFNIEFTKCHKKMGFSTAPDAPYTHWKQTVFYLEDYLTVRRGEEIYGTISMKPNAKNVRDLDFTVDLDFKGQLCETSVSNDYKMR

Compound	IC50 (human PRMT8) [nM]	IC50 (human PRMT6) [nM]
CNCCN(C)Cc1c[nH]nc1C#Cc1cccc(OC)c1 [Compound 1]	101 to 1000	< 100
CNCCN(C)Cc1c[nH]nc1C#Cc1ccc(C(C)(C)C)cc1 [Compound 2]	101 to 1000	< 100
CNCCN(C)Cc1c[nH]nc1C#Cc1ccccc1 [Compound 3]	101 to 1000	< 100
CNCCN(C)Cc1c[nH]nc1C#Cc1ccc(F)cc1 [Compound 4]	101 to 1000	< 100
CNCCN(C)Cc1c[nH]nc1/C=C/c1ccc(-c2ccccc2)cc1 [Compound 5]	101 to 1000	< 100
CNCCN(C)Cc1c[nH]nc1/C=C/c1ccc(C(F)(F)F)cc1 [Compound 6]	101 to 1000	< 100
CNCCN(C)Cc1c[nH]nc1/C=C/c1ccc(OC)cc1 [Compound 7]	101 to 1000	< 100
Cc1ccc(/C=C/c2n[nH]cc2CN(C)CCN)cc1 [Compound 8]	101 to 1000	< 100
CN(CCN)Cc1c[nH]nc1C1=CCOCC1 [Compound 10]	1010 to 3000	101 to 1000
COc1cc(/C=C/c2n[nH]cc2CN(C)CCN)cc(OC)c1 [Compound 11]	101 to 1000	< 100
CN(CCN)Cc1c[nH]nc1/C=C/c1ccc(F)cc1F [Compound 13]	101 to 1000	< 100
CN(CCN)Cc1c[nH]nc1/C=C/c1cc(C(F)(F)F)cc(C(F)(F)F)c1 [Compound 14]	101 to 1000	101 to 1000
CN(CCN)Cc1c[nH]nc1/C=C/c1cc(F)cc(F)c1 [Compound 15]	101 to 1000	< 100
CN(CCN)Cc1c[nH]nc1/C=C/c1cccc(C(F)(F)F)c1 [Compound 16]	101 to 1000	101 to 1000
COc1cccc(/C=C/c2n[nH]cc2CN(C)CCN)c1 [Compound 17]	101 to 1000	< 100
CN(CCN)Cc1c[nH]nc1/C=C/c1ccc(C(F)(F)F)cc1 [Compound 18]	< 100	< 100
COC/C=C/c1n[nH]cc1CN(C)CCN [Compound 19]	1010 to 3000	101 to 1000
CN(CCN)Cc1c[nH]nc1/C=C/c1cccc(F)c1 [Compound 20]	101 to 1000	< 100
CC(C)c1n[nH]cc1CN(C)CCN [Compound 21]	3010 to 10000	101 to 1000
